Reference: US20050261292A1, “Pharmaceutical composition containing N-sulfamoyl-N'-arylpiperazines for the treatment or inhibition of obesity and related conditions” (Solvay Pharmaceuticals GmbH, priority 2004, published 2005)
Where a name gives a salt, the structure may show the parent alone.

Key:
male C57Bl/6 mice = assay: Acute in vivo food intake test in mice; conditions: high caloric diet, 100 mg/kg/day oral gavage in two halves
Protocol: 3. Acute in vivo Food Intake Test in Mice
The studies were carried out in individually housed male C57Bl/6 mice (n=8 per group). The mice were kept on an inverted 12/12 h light/dark cycle (lights on 22:00). They were allowed food (high caloric diet) and water ad libitum. Food intake and water consumption was measured daily. The test compound of Formula I was suspended in 1% methylcellulose in water and 2% (v/v) of Poloxamer 188 (Lutrol F68®) and administered by oral gavage at a dose of 100 mg/kg/day.
In the test model described above, the test substances caused a decrease of the animals' 24 h food intake to the percentages of food intake when compared to control as given in table 3 below.

[1] = target: T1, human carbonic anhydrase isoenzyme II (hCA II) (Homo sapiens, UniProt P00918); assay: In vitro inhibition of human carbonic anhydrase isoenzyme II (hCA II), dansylamide fluorescence; format: biochemical; conditions: hCA II from erythrocytes 10^-7 M, 60 min, single measurements, read-out: hCA II inhibiting effect in vitro, IC50
T1 construct: human carbonic anhydrase isoenzyme II from erythrocytes (Sigma-Aldrich); purchased Sigma-Aldrich; host or cells: human erythrocytes (natural source)
Protocol: 1. In vitro Inhibition of Human Carbonic Anhydrase Isoenzyme II (hCA II)
The test compounds of Formula I in 96 well microplates were diluted with aqua bidest by using an automatic pipettor (CyBiWell®). From the different dilution plates, aliquots of 20 μl were transferred to the 96 well black assay plates with a pipetting station (Tecan Genesis®). In a second step, 148 μl of potassium phosphate buffer (20 mM, pH 7.4) was added, and as a third step, 20 μl of enzyme solution (1 μM human carbonic anhydrase isoenzyme II from erythrocytes (Sigma-Aldrich), dissolved in potassium phosphate buffer) incubated for 60 min at room temperature and the fluorescence signal (Tecan Ultra® fluorescence reader; excitation wavelength: 280 nm; emission wavelength: 465 nm) read at the end of the preincubation period (FLU-1). After the preincubation time, 20 μl of aqueous dansylamide solution (1 mM dansylamide (Sigma-Aldrich), dissolved in hydrochloric acid) were added and the fluorescence signal read every 10 min for a period of 60 min at 37° C. For calculation, the fluorescence data of the time point 60 min (FLU-2) were used. The total volume of assay mixture amounted to 208 μl. The final concentration of carbonic anhydrase II was 10^−7 M/L, of dansylamide 2.25×10^−6 and of compounds from 10^−8 M/L up to 10^−5 M/L. Final concentration of DMSO as compound solvent was […]. Each microplate also contained blanks without compound and enzyme, controls without compound and ethoxzolamide (final concentration 5×10^−8 M/L). All data reflect single measurements. Data were expressed as % inhibition after calculation by the formula: % inhibition=100((1−(FLU−2cpd−FLU−2blank−FLU−1cpd+FLU−1blank)/(FLU−2control−FLU−2blank−FLU−1control−FLU−1blank))
The % inhibition data for each compound and the respective final concentrations were used for IC50 calculations by using the Prism 4 software. Concentration action figures were calculated by applying the Prism algorithm for nonlinear regression (curve-fit): sigmoidal dose response with variable slope and the constraints: top: 100 and bottom 0.

male fatty Zucker rats = assay: In vivo oral glucose tolerance test in the rat; conditions: 100 mg/kg/day oral gavage
Protocol: 2. In vivo Oral Glucose Tolerance Test in the Rat
The studies were carried out in individually housed male fatty Zucker rats (n=10 per group) weighing ca. 250-500 g. The rats were kept on a normal 12/12 h light/dark cycle (lights on 07.00) and they were allowed food (lab chow) and water ad libitum except for during experiments, when they were fasted overnight before the glucose challenge.
The test substances of Formula I were suspended in 2% polyethylenglycol (=PEG) 1% carboxymethylcellulose and administered by oral gavage at a dose of 100 mg/kg/day; ⅓ of the dose (1 ml/kg, 33 mg/ml) was administered at 08.30-09.30 h; the remaining […] (2 ml/kg; 33 mg/ml) was administered between 16.00-17.00 h and the last ⅓ dose was given the following morning. Control animals received only the vehicle. On the day of the test, 45 min after the final dose of test substance/vehicle a blood sample (0 min) was taken (tail vein) immediately after which the rats received an oral glucose challenge (1.25 g/kg; 118 mg/ml). Further blood samples were taken at 30, 60, 90, 120 min after the glucose challenge. The second drop of blood of each sample was placed on a glucose test strip before this was placed in the glucose meter for determination of blood glucose level (Life Scan One Touch Ultra Blood® Glucose Meter and Life Scan One Touch Ultra® Test Strips; Life Scan Inc.; Milpitas, Calif. 95035). The remaining blood of each sample was spun and the plasma was frozen at −80° C. before analysis for insulin (1-2-3 Rat Insulin ELISA kit, Alpco Diagnostics).
The values obtained were plotted and the AUC for test compounds and vehicle (for glucose and insulin) were determined after which the percent control AUC, percent control maximum value and % control baseline were estimated, to determine the influence of the test compound on the glucose tolerance.

SMILES: NS(=O)(=O)N1CCN(c2ccccc2)CC1 [Example 2, N-Sulfamoyl-N′-phenylpiperazine hydrochloride]
- 24 h food intake (male C57Bl/6 mice): 68 % of control
- IC50 [1]: 5.1 µM
- Glucose Baseline (male fatty Zucker rats; 0 min sample before glucose challenge): 82 % of control
- Insulin Baseline (male fatty Zucker rats; 0 min sample before glucose challenge, plasma): 85 % of control
- Glucose Maximal effect (male fatty Zucker rats; oral glucose challenge 1.25 g/kg): 78 % of control
- Glucose AUC (male fatty Zucker rats; oral glucose challenge 1.25 g/kg, 0-120 min): 84 % of control
- Insulin AUC (male fatty Zucker rats; oral glucose challenge 1.25 g/kg, 0-120 min, plasma): 95 % of control
- Insulin Maximal effect (male fatty Zucker rats; oral glucose challenge 1.25 g/kg, plasma): 95 % of control
